Experiments:
[1] = system: fused protein of DsRed and PKC having at its N terminal end a tag polypeptide of sequence (A); assay: Imaging of PKC in cytoplasm of CHO.K1 cells through formation of tag-probe complex (observation of NBD); type: cell-based
Description: CHO.K1 cells expressing a fused protein of DsRed and PKC having at its N terminal end a tag polypeptide of sequence (A) as indicated below were prepared using Lipofectamin LTX (Invitrogen).
Subsequently, a permeabilization buffer (20 mM Hepes, pH 7.4, 140 mM KCl, 50 μg/mL saponin, 5 mM oxalic acid) was added to the thus-prepared CHO.K1 cells. After left to stand on ice for 10 min, the cells were washed with PBS, followed by incubating on ice for 20 min in PBS. Thereafter, the cells were incubated in PBS at room temperature for 2 min and then 37° C. for 2 min. Further, the cells were incubated at 37° C. for 30 min in a conditioned medium (Ham's F12) to which a probe indicated by sequence (B) (probe concentration: 1 μM (Final conc.)) had been added.
The medium was changed to a DMEM with no phenol red, and then, the cells were observed by a fluorescence microscope (IX81 (Olympus), objective lens: 20 times) at predetermined emission wavelength (490 nm to 510 nm).
(§1) Separately, before treated with the permeabilization buffer, the above-prepared CHO.K1 cells were treated for 10 min with 10 mM DMSO containing PDBu (phorbol 12,13 dibutyrate; final concentration: 10 μM). The cells were observed by the fluorescence microscope similar to the above.

[2] = system: fused protein of DsRed and PKC having at its N terminal end a tag polypeptide indicated by sequence (A); assay: Localization of PKC in cytoplasm (DsRed fluorescence); type: cell-based; details: CHO.K1 cells treated for 10 min, final concentration 10 μM; 515 nm to 560 nm
Description: as §1
The following was used as a control; a group which was not treated with PDBu, and CHO.K1 cells to which only DIC was introduced (note that DIC is a vector used for introducing into cells the above-mentioned fused protein of DsRed and PKC having at its N terminal end a tag polypeptide indicated by sequence (A). The cells were observed as mentioned above at predetermined wavelength (515 nm to 560 nm). The results are shown in FIG. 11.

[3] = Circular dichroism spectroscopy of tag peptide, probe peptide and tag-probe mixture; type: physicochemical; details: for probe peptides that formed an α-helix structure: probe peptide alone; for tag peptides that formed an α-helix structure: tag peptide alone
Description: The circular dichroism spectrum of the tag polypeptides and the probe polypeptides of Examples 1 to 3 were measured.
The structures of the tag peptide, the probe peptide and the tag-probe complex were analyzed by circular dichroism spectroscopy.
In each of FIGS. 3A to 3C, the horizontal axis represents wavelength used for measurement whereas the vertical axis represents molar residue ellipticity.

[4] = system: probe peptide; assay: Fluorescence titration in cell lysate; type: binding; details: HeLa cell lysate, 0.1 to 4.0 equivalents of tag peptide
Description: Fluorescence titration was performed for the tag polypeptides and the robe polypeptides of Example 1 in a cell lysate.
10 mL of a HeLa cell culture solution containing 1.0×10^6 cells/mL were dispensed in a centrifugal tube and the cells were centrifuged for 5 minutes at 1000 rpm to obtain a pellet of HeLa cells. The pellet was dispersed in 1 mL HEPES buffer and the dispersion was sonicated for 10 minutes. Subsequently, the dispersion was filtered through a membrane filter to remove undesired materials and thus give a cell lysate. The probe peptide was dissolved in the cell lysate to a concentration of […]. To this solution, a tag peptide solution was added dropwise until the solution contained 0.1 to 4.0 equivalents of the tag peptide. The resulting solution was subjected to fluorescence spectroscopy.
In FIG. 9, the horizontal axis represents fluorescence wavelength whereas the vertical axis represents fluorescence intensity

[5] = system: probe peptide; assay: Fluorescence titration of probe peptide with tag peptide (HEPES buffer), incl. Job's plot; type: binding; details: for fluorescence wavelength ultimately shifted to on addition of tag peptide: 0.5 μM probe peptide, 0.1 to 2.0 equivalents of tag peptide; for Kd: tag peptide to probe peptide, theoretical formula assuming 1 to 1 interaction, fluorescence at 505 nm, read-out: dissociation constant Kd
Description: Fluorescence titration was performed for the tag polypeptides and the probe polypeptides of Examples 1 to 3.
In the fluorescence titration, the rate of change of the fluorescence intensity at 505 nm was plotted against the concentration of the tag peptide and the dissociation constant was calculated from a theoretical formula assuming 1 to 1 binding of the tag peptide to the probe peptide.
In Example 1, the fluorescence intensity at 505 nm in the presence of 1 equivalent of tag peptide was 18 times as high as that measured in the absence of the tag peptide.
Also in the fluorescence titration, with the total concentration of the tag peptide and the probe peptide being fixed at 1.0 μM, the ratio of the respective concentrations of the tag peptide and the probe peptide was varied and the fluorescence intensity at 505 nm was measured. The measured fluorescence intensity was plotted against the ratio of the tag peptide concentration to the total concentration of the tag peptide and the probe peptide and was analyzed by the theoretical formula assuming 1 to 1 binding of the tag peptide to the probe peptide.

[6] = system: tag peptide represented by structural formula (8); assay: Crosslink reaction of chloroacetylated probe peptide with tag peptide; type: biochemical; details: 10 minutes after start, 1.0 μM tag and 1.0 μM probe, 25° C., pH 7.2
Description: The probe peptide for crosslink reaction obtained in Example 7 was used to perform a crosslink reaction.
The probe peptide was crosslinked to a tag peptide represented by the following structural formula (8). The tag polypeptide is identical to that used in Example 1.
To a 1.0 μM tag peptide solution (50 mM HEPES buffer (pH 7.2, 10 mM NaCl)), the probe peptide was added to a concentration of 1.0 μM and the reaction was carried out at 25° C.-1 mL samples were collected from the reaction mixture after 1, 5, 10, 15, 20 and 30 minutes. 1 mL of a 10% aqueous acetic acid solution was added to each sample to quench the reaction. The samples were analyzed by HPLC using a C18 reversed-phase analytical column (4.6×250 mm). The crosslinked product was identified by ESI-TOF MS. The yield of the reaction was calculated from the peak area ratio of HPLC.
In FIG. 10, the horizontal axis represents elapsed time after addition of the probe peptide whereas the vertical axis represents the yield of the crosslink reaction.

Row | probe peptides that formed an α-helix structure [3] [%] | tag peptides that formed an α-helix structure [3] [%] | tags and probes that formed an α-helix structure in the tag-probe mixture [3] [%] | Kd [5] [nM] | Molecule | localization of NBD-derived fluorescence ([1]; CHO.K1 cells treated for 10 min, final concentration 10 μM) | localization of DsRed-derived fluorescence [2] | spectral changes of probe peptide as tag peptide was added [4] | fluorescence wavelength ultimately shifted to on addition of tag peptide [5] [nm] | fluorescence intensity at 505 nm relative to that measured in the absence of the tag peptide ([5]; in the presence of 1 equivalent of tag peptide) [times] | comparison of fluorescence intensity among Examples 1 to 3 ([5]; overlapped spectra of highest peaks, FIG. 5) | NBD-derived fluorescence in cells ([1]; 1 μM probe, permeabilized CHO.K1 cells, around 510 nm) | yield of the crosslink reaction [6]
1 | – | – | – | – | CCCC(=O)O[C@@H]1[C@@H](C)[C@@]2(O)[C@@H](C=C(CO)C[C@]3(O)C(=O)C(C)=C[C@@H]23)[C@@H]2C(C)(C)[C@]12OC(=O)CCC [PDBu, phorbol 12,13 dibutyrate, reference compound] | locally observed | locally observed | – | – | – | – | – | –
2 | 53 | 18 | 41 | 755 | ALKKELEAGKKELEALKKELAGGCGGALEKELEALEKEGEALEKELA [Example 3] | – | – | – | 526 | – | – | – | –
3 | 53 | 81 | 78 | 24.3 | ALKKELEALKKELEALKKELAGGCGGALEKELEALEKELEALEKELA [Example 2] | – | – | – | 516 | – | – | – | –
4 | – | – | – | – | ClAc-{Gly}{Ala-Leu-Lys-Lys-Lys-Leu-Glu}{Ala-Leu-Lys-Lys-Lys-Dap(NBD)-Glu}{Ala-Leu-Lys-Lys-Lys-Leu-Ala} [Example 7] | – | – | – | – | – | – | increase in fluorescence intensity | at least 80%

Row | Molecule | probe peptides that formed an α-helix structure [3] [%] | tag peptides that formed an α-helix structure [3] [%] | tags and probes that formed an α-helix structure in the tag-probe mixture [3] [%] | Kd [5] [nM] | localization of NBD-derived fluorescence ([1]; CHO.K1 cells treated for 10 min, final concentration 10 μM) | localization of DsRed-derived fluorescence [2] | spectral changes of probe peptide as tag peptide was added [4] | fluorescence wavelength ultimately shifted to on addition of tag peptide [5] [nm] | fluorescence intensity at 505 nm relative to that measured in the absence of the tag peptide ([5]; in the presence of 1 equivalent of tag peptide) [times] | comparison of fluorescence intensity among Examples 1 to 3 ([5]; overlapped spectra of highest peaks, FIG. 5) | NBD-derived fluorescence in cells ([1]; 1 μM probe, permeabilized CHO.K1 cells, around 510 nm) | yield of the crosslink reaction [6]
5 | ALKKELEAAKKELEALKKELAGGCGGALEKELEALEKEAEALEKELA [Example 1] | 53 | 58 | 71 | 17.5 | – | – | substantially the same spectral changes as in HEPES buffer | 505 | 18 | highest fluorescence intensity | – | –
